Structures are written as SMILES.

A word on the IC50: it is the point on the concentration scale where inhibition reaches its midpoint. Higher therefore signals a need for much substance.

hMAT2A, sequence (P31153 whole entry): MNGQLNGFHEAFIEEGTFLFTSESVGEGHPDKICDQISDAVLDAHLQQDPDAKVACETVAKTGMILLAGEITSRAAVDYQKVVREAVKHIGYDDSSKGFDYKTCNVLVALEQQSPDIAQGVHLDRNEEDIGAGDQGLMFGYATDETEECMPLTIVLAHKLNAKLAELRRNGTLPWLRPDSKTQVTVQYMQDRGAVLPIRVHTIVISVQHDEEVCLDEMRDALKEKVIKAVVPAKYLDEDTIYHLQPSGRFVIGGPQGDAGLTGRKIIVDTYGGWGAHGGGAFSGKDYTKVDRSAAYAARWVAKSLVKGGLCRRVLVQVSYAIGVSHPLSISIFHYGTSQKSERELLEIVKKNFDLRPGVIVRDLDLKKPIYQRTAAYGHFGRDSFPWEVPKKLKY

The first assay addresses hMAT2A (Homo sapiens (Human), UniProt P31153). In words: Phosphate Sensor Fluorescence Assay (MAT2A enzyme inhibition). The assay is classed as biochemical. Particulars: L-methionine 500 uM, ATP 500 uM, class symbols. As for the experimental part:
The ability of the compound of present disclosure to inhibit MAT2A enzyme was determined using the Malachite Green or Phosphate Sensor Fluorescence Assay described below.
B. Phosphate Sensor Fluorescence Assay
MAT2A enzyme is incubated with a test compound in DMSO or DMSO and its substrates (L-methionine and ATP) in a microtiter plate. The enzymatic reaction is stopped by the addition of Working Phosphate Sensor Mixture. The plate is analyzed for fluorescence at 450 nm.
Assay Buffer: 50 mM Tris, pH 7.5/50 mM KCl/10 mM MgCl2/0.01% Brij-35/1 mM DTT/0.1% BGG/40 nM PNP/6 uM 7-MEG
L-methionine: 500 uM before the addition of Working Phosphate Sensor Mixture
ATP: 500 uM before the addition of Working Phosphate Sensor Mixture
Test compounds or DMSO were added to the appropriate well suing D300e digital dispenser. 5 μl/well of Assay Buffer was added to the wells corresponding to the negative control and 5 μl/well of MAT2A was added to all the wells except for those corresponding to the negative control. After incubating the plate at room temperature for 15 minutes, 5 μl/well of the 1 mM L-methionine/1 mM ATP mixture was added to all wells. The plate was centrifuged at 1000 rpm for 1 minute and then incubated at room temperature for 1 hour. 5 μl of the Working Phosphate Sensor Mixture was added to all wells and the plate was centrifuged at 1000 rpm for 1 minute. The plate was read for fluorescence at 450 nm after exciting at 430 nm.
Percent inhibition was calculated in Chemical and Biological Information System (CBIS), (ChemInnovation Software Inc.). Curves were fitted by CBIS as % inhibition vs. log [compound concentration] using a 4-parameter inhibition model. Fit=(A+((B−A)/(1+((C/x)^D)))) Res=(y−fit)
The compound `C=Cc1ccc2c(NC)nc(=O)n(-c3ccccc3)c2c1` [Example 96, 4-(methylamino)-1-phenyl-7-vinylhydro-quinazolin-2-one] came in with a concentration for half-maximal inhibition (IC50) of under 200 nM.

`Cc1ccccc1-n1c(=O)nc(NCC(F)F)c2ccc(C(F)(F)F)cc21` [Example 127, 4-[(2,2-difluoroethyl)amino]-1-(2-methylphenyl)-7-(trifluoromethyl)hydro-quinazolin-2-one] registered an IC50 of under 200 nM.

`CNc1nc(=O)n(-c2ccccc2)c2cc(CCl)ccc12` [Example 160, 7-(chloromethyl)-4-(methylamino)-1-phenylhydroquinazolin-2-one]: the concentration for half-maximal inhibition (IC50) is under 200 nM.

For `Nc1nc(=O)n(-c2ccccc2)c2cc(C3CC3)ccc12` [Example 400, 4-amino-7-cyclopropyl-1-phenylhydro-quinazolin-2-one], the IC50 is under 200 nM.

On to `[2H]C([2H])([2H])Nc1nc(=O)n(-c2ccccc2)c2cc(C(F)(F)F)ccc12` [Example 369, 4-((methyl-d3)amino)-1-phenyl-7-(trifluoromethyl)quinazolin-2(1H)-one], for which the IC50 was under 200 nM.

On to `Cc1ccccc1-n1c(=O)[nH]c(=O)c2ccc(C(F)(F)F)cc21` [Example 147, 1-(2-methylphenyl)-7-(trifluoromethyl)-1,3-dihydroquinazoline-2,4-dione], for which the IC50 is under 200 nM.

`O=c1nc(NCCO)c2ccc(C(F)(F)F)nc2n1-c1ccccc1Cl` [Example 296, 1-(2-chlorophenyl)-4-[(2-hydroxy-Iethyl)amino]-7-(trifluoromethyl) pyrido[2,3-d]pyrimidin-2(1H)-one] gave an IC50 of under 200 nM.

For the compound `O=c1nc(NC2CCC2)c2ccc(C(F)(F)F)nc2n1-c1ccccc1Cl` [Example 320, 1-(2-chlorophenyl)-4-(cyclobutylamino)-7-(trifluoromethyl)pyrido[2,3-d]-pyrimidin-2(1H)-one], the IC50 was under 200 nM.

For `O=c1nc(N[C@@H]2C[C@H]2F)c2ccc(OC(F)(F)F)cc2n1-c1ccccc1Cl` (atropisomer, axis not shown) [Example 404, 4-[((1R,2R)-2-fluorocyclopropyl)-amino]-1-(2-chlorophenyl)-7-(trifluoromethoxy)hydroquinazolin-2-one], the IC50 was under 200 nM.

In turn, `CNc1nc(=O)n(-c2nc(C)cs2)c2cc(Cl)ccc12` [Example 117, 7-chloro-1-(4-methyl(1,3-thiazol-2-yl))-4-(methylamino)hydroquinazolin-2-one] returned an IC50 of 1000 to 10000 nM.

The compound `CNc1nc(=O)n(-c2ccccc2)c2cc(C(F)(F)F)cc(F)c12` [Example 420, 5-fluoro-4-(methylamino)-1-phenyl-7-(trifluoromethyl)hydroquinazolin-2-one] registered an IC50 of under 200 nM.

As to `CNc1nc(=O)n(-c2ccncc2Cl)c2nc(C(F)(F)F)ccc12` [Example 312], the IC50 is under 200 nM.

For the compound `CC1(C)CCN(c2nc(=O)n(-c3ccccc3)c3cc(Cl)ccc23)C1` [Example 238, 4-(3,3-dimethylpyrrolidin-1-yl)-7-chloro-1-phenylhydroquinazolin-2-one], the IC50 was under 200 nM.

In the case of `O=c1nc(NCC(F)(F)F)c2ccc(C(F)(F)F)nc2n1-c1ccccc1Cl` [Example 389, 1-(2-chlorophenyl)-4-[(2,2,2-trifluoro-ethyl)amino]-7-(trifluoro-methyl)-pyrido[2,3-d]pyrimidin-2(1H)-one], the IC50 was under 200 nM.

On to `Nc1nc(=O)n(-c2ccccc2Cl)c2cc(C(F)(F)F)ccc12` [Example 99, 4-amino-1-(2-chlorophenyl)-7-(trifluoromethyl)hydroquinazolin-2-one], for which the half-inhibitory concentration (IC50) is under 200 nM.

As for `O=c1nc(N[C@H]2C[C@H](O)C2)c2ccc(C(F)(F)F)nc2n1-c1ccccc1Cl` [Example 334, 1-(2-chlorophenyl)-4-(((1r,3r)-3-hydroxycyc1obutyl)amino)-7-(trifluoro-methyl)pyrido[2,3-d]pyrimidin-2(1H)-one], the IC50 is under 200 nM.

Turning to `O=c1nc(N[C@H]2C[C@](O)(C(F)(F)F)C2)c2ccc(C(F)(F)F)nc2n1-c1ccccc1Cl` [Example 275, 4-{[(cis)-3-hydroxy-3-(trifluoromethyl)-cyclobutyl]amino}-1-(2-chlorophenyl)-7-(trifluoromethyl)pyrido[2,3-d]-pyrimidin-2(1H)-one], the IC50 is 500 to 1000 nM.

As for `O=c1nc(NCC2CC2)c2cc(Cl)c(C3CC3)cc2n1-c1ccccc1Cl` [Example 411], the concentration for half-maximal inhibition (IC50) is under 200 nM.

For `CNc1nc(=O)n(-c2cccc3ncsc23)c2nc(C(F)(F)F)ccc12` [Example 381, 1-benzothiazol-7-yl-4-(methylamino)-7-(trifluoromethyl)pyrido[2,3-d]pyrimidin-2(1H)-one], the 50% inhibitory concentration (IC50) is under 200 nM.

In turn, `Nc1nc(=O)n(-c2ccccc2Cl)c2nc(C(F)(F)F)ccc12` [Example 167, 4-amino-1-(2-chlorophenyl)-7-(trifluoro-methyl)pyrido[2,3-d]pyrimidin-2(1H)-one] registered an IC50 of under 200 nM.

As to `Nc1nc(=O)n(-c2ccccc2Br)c2cc(Cl)ccc12` [Example 149, 4-amino-1-(2-bromophenyl)-7-chloro-hydroquinazolin-2-one], the IC50 is under 200 nM.

Consider `COCCCNc1nc(=O)n(-c2ccccc2Cl)c2nc(C(F)(F)F)ccc12` [Example 248, 1-(2-chlorophenyl)-4-[(3-methoxy-propyl)amino]-7-(trifluoromethyl)-pyrido[2,3-d]pyrimidin-2(1H)-one], for which the half-inhibitory concentration (IC50) is under 200 nM.

`Cc1ncccc1-n1c(=O)nc(N)c2ccc(C(F)(F)F)cc21` [Example 285] registered an IC50 of under 200 nM.

Regarding `O=c1nc(Nc2ccncc2)c2ccc(C(F)(F)F)nc2n1-c1ccccc1Cl` [Example 421, 1-(2-chlorophenyl)-4-(pyridin-4-yl-amino)-7-(trifluoromethyl)pyrido[2,3-d]-pyrimidin-2(1H)-one], the IC50 was under 200 nM.

As for `N#Cc1cc2c(NCC3CC3)nc(=O)n(-c3ccccc3Cl)c2cc1C1CC1` [Example 409, 1-(2-chlorophenyl)-7-cyclopropyl-4-((cyclopropylmethyl)amino)-2-oxo-1,2-dihydroquinazoline-6-carbonitrile], the IC50 is under 200 nM.

In the case of `O=c1nc(N2CC[C@@H]2CO)c2ccc(Cl)cc2n1-c1ccccc1` [Example 187, (R)-7-chloro-4-(2-(hydroxymethyl)-azetidin-1-yl)-1-phenylquinazolin-2(1H)-one], the IC50 was 200 to 500 nM.

Regarding `C[C@H]1CCCN1c1nc(=O)n(-c2ccccc2)c2nc(C(F)(F)F)ccc12` [Example 345, 4-((2S)-2-methylpyrrolidin-1-yl)-1-phenyl-7-(trifluoromethyl)pyrido[2,3-d]-pyrimidin-2(1H)-one], the IC50 was under 200 nM.

Compound `Cn1ccc(CNc2nc(=O)n(-c3ccccc3Cl)c3nc(C(F)(F)F)ccc23)n1` [Example 257, 1-(2-chlorophenyl)-4-{[(1-methyl-pyrazol-3-yl)methyl]amino}-7-(trifluoro-methyl)-pyrido[2,3-d]pyrimidin-2(1H)-one] had an IC50 of under 200 nM.

For the compound `Cc1ccccc1-n1c(=O)nc(N2CC[C@@H](O)C2)c2ccc(C(F)(F)F)nc21` [Example 183, (R)-4-(3-hydroxypyrrolidin-1-yl)-1-(o-tolyl)-7-(trifluoromethyl)pyrido[2,3-d]-pyrimidin-2(1H)-one], the IC50 was under 200 nM.

As for `CNc1nc(=O)n(-c2cccc(O)c2F)c2cc(Cl)ccc12` [Example 333, 7-chloro-1-(2-fluoro-3-hydroxyphenyl)-4-(methylamino)quinazolin-2(1H)-one], the IC50 was under 200 nM.

For the compound `O=c1nc(N2CC(F)C2)c2ccc(C(F)(F)F)nc2n1-c1ccccc1Cl` [Example 315, 1-(2-chlorophenyl)-4-(3-fluoroazetidin-1-yl)-7-(trifluoromethyl)pyrido[2,3-d]pyrimidin-2(1H)-one], the IC50 is under 200 nM.

`CNc1nc(=O)n(-c2ccccc2)c2cc(C(F)F)ccc12` [Example 143, 7-(difluoromethyl)-4-(methylamino)-1-phenylhydroquinazolin-2-one] returned a concentration for half-maximal inhibition (IC50) of under 200 nM.

Compound `O=c1nc(NCC2(O)CC2)c2ccc(C(F)(F)F)nc2n1-c1ccccc1Cl` [Example 295, 1-(2-chlorophenyl)-4-{[(hydroxycyclo-propyl)methyl]amino}-7-(trifluoro-methyl)-pyrido[2,3-d]pyrimidin-2(1H)-one] gave an IC50 of under 200 nM.

Staying with this assay, now noted: L-methionine 500 uM, ATP 500 uM, numeric bound.
Take `O=c1[nH]c(=O)n(-c2cccc3nc[nH]c23)c2cc(Cl)ccc12` [Example 305, 1-benzimidazol-7-yl-7-chloro-1,3-dihydroquinazoline-2,4-dione]: the IC50 is over 10000 nM.

For `CC(C)(C)OC(=O)N1CC=C(c2cc(Cl)cc3c2c(O)nc(=O)n3-c2ccccc2)C1` [Example 290, tert-butyl 3-(7-chloro-4-hydroxy-2-oxo-1-phenyl-1,2-dihydroquinazolin-5-yl)-2,5-dihydro-1H-pyrrole-1-carboxylate], the IC50 was over 10000 nM.

In the case of `CNc1nc(=O)n(-c2nc(C(F)(F)F)cs2)c2cc(Cl)ccc12` [Example 113, 7-chloro-4-(methylamino)-1-[4-(trifluoromethyl)(1,3-thiazol-2-yl)]hydroquinazolin-2-one], the IC50 was over 10000 nM.

Values taken from US11046691B1 (IDEAYA BIOSCIENCES, INC., priority 2018, dated 2021).
